In patent US20110152341A1, “CLEAVAGE OF B-AMYLOID PRECURSOR PROTEIN” (PROBIODRUG AG, priority 2009, published 2011):

Test system: human meprin-β (hMPβ) and human APP in HEK293 cells
Assay: Aβ secreted by HEK293 cells after transient overexpression of human meprin-β and human APP, ELISA
Type: cell-based
Settings: 20 μM actinonin (1% DMSO), 24 h, HEK293, ELISA (IBL) with antibody 6E10
Method: The sequence of human APP was cloned into the vector pcDNA3.1 (Invitrogen) and various mutations were inserted. The resulting clones were named pcDNA-hAPP (for wildtyp APP), pcDNA-hAPPsw (for mutation K595N, M596L) and pcDNA-hAPP/E3Q (for mutation E599Q). For transient overexpression of human meprin and human APP the cells were cultured in 6-well dishes until 90% confluence, transfected with 2 μg of vector with meprin and 2 μg of one of the described APP-vectors per well using Lipofectamin2000 (Invitrogen) according to manufacturer's manual. Control samples were transfected with pcDNA3.1. After 24 h the solution was replaced by medium free of serum and phenolred. Medium was collected 24 h later and supplemented with a protease inhibitor cocktail (complete, Mini, Roche), centrifuged at 500×g and 10 000×g, subsequently to remove cells and debris. The supernatant was stored at −80 until analysis by ELISA (IBL) and urea western-blot for identification of liberated Aβ species.
24 h after co-transfection of HEK293 cells with human APP and meprin (as described for example 4) the medium was replaced by medium free of serum and phenolred supplemented with 20 μM Actinonin (1% DMSO). 24 hours later medium was collected, supplemented with inhibitor cocktail (complete, Mini, Roche), centrifuged at 500×g and 10 000×g, subsequently to remove cells and debris. […]

CCCCC[C@H](CC(=O)NO)C(=O)N[C@H](C(=O)N1CCC[C@H]1CO)C(C)C [Actinonin]
Effect on the increase of Aβ secretion after overexpression of hAPP and hMPβ: reduced to almost the basal level
